{"source": "PubChem BioAssay AID1259409", "about": "(Chemical Carcinogenesis Research Information System (CCRIS), 2018)", "origin": "cited, not measured here", "tested_on": "rodent chemically induced tumor inhibition, incidence and multiplicity", "experiment": "CCRIS tumor inhibitor studies", "details": "Dose [Inhibitor]: 0", "note": "Several values for one entry are separate records, joined by “and”; a condition that tells them apart may be missing. Equal values may be shown once.", "data": [{"smiles": "N#C[Se]Cc1ccc(C[Se]C#N)cc1", "values": [{"measurement": "tumour outcome (control, treated, inhibition, significance)", "setting": "Carcinogen: 4(Methylnitrosamino)-1-(3-pyridyl)-1-butanone (NNK) (62339-61-1), 10 ppm as Se in diet, wks 6 to 32, study duration 26 wk, Route [Inhibitor]: Oral, Species: Mouse, Strain/Sex: A/J / Female, Target Tissue: Type of Lesion: Lung: Tumor, Dose [Carcinogen]: 3 umol once a wk for 8 wk beginning at wk 6 (total of 24 umol/mouse), study duration 26 wk", "value": "90%, 20% (78% reduction), p<0.001 and 96%, 68% (30% reduction), p<0.01"}, {"measurement": "tumour outcome (control, treated, inhibition, significance)", "setting": "Carcinogen: 4-(METHYLNITROSAMINO)-1-(3-PYRIDYL)-1-BUTANONE, 64091-91-4, 0.0005% IN DIET FOR 17 WK BEGINNING 1 WK PRIOR TO CARCINOGEN DOSE (STUDY DURATION: 17 WK), Route [Inhibitor]: ORAL, Species: MOUSE, Strain/Sex: STRAIN-A/FEMALE, Target Tissue: Type of Lesion: LUNG: ADENOMA, Dose [Carcinogen]: 10 UMOL IN 0.1 ML SALINE ONCE, Promoter: NONE USED", "value": "100%, 100%, 0%, not significant"}, {"measurement": "tumour outcome (control, treated, inhibition, significance)", "setting": "Carcinogen: 4-(METHYLNITROSAMINO)-1-(3-PYRIDYL)-1-BUTANONE, 64091-91-4, 5 PPM IN DIET BEGINNING 1 WK PRIOR TO CARCINOGEN TREATMENT AND CONTINUING FOR 16 WK POST CARCINOGEN TREATMENT (STUDY, Route [Inhibitor]: ORAL, Species: MOUSE, Strain/Sex: STRAIN-A/FEMALE, Target Tissue: Type of Lesion: LUNG: ADENOMA, Dose [Carcinogen]: 10 UMOL IN 0.1 ML SALINE, Promoter: NONE USED", "value": "100%, 100%, 0%, not significant"}, {"measurement": "tumour outcome (control, treated, inhibition, significance)", "setting": "Carcinogen: 4-(METHYLNITROSAMINO)-1-(3-PYRIDYL)-1-BUTANONE, 64091-91-4, 7.5 PPM IN DIET FOR 3 WK BEGINNING 1 WK PRIOR TO CARCINOGEN DOSE (STUDY DURATION: 18 WK), Route [Inhibitor]: ORAL, Species: MOUSE, Strain/Sex: STRAIN-A/FEMALE, Target Tissue: Type of Lesion: LUNG: TUMOR, Dose [Carcinogen]: 10 UMOL IN 0.1 ML SALINE ONCE, Promoter: NONE USED", "value": "100%, 80%, 20%, not significant"}, {"measurement": "tumour outcome (control, treated, inhibition, significance)", "setting": "Carcinogen: 4-(METHYLNITROSAMINO)-1-(3-PYRIDYL)-1-BUTANONE, 64091-91-4, 7.5 PPM IN DIET FOR 15 WK BEGINNING 1 WK POST CARCINOGEN DOSE (STUDY DURATION: 18 WK), Route [Inhibitor]: ORAL, Species: MOUSE, Strain/Sex: STRAIN-A/FEMALE, Target Tissue: Type of Lesion: LUNG: TUMOR, Dose [Carcinogen]: 10 UMOL IN 0.1 ML SALINE ONCE, Promoter: NONE USED", "value": "100%, 96%, 4%, not significant"}, {"measurement": "tumour outcome (control, treated, inhibition, significance)", "setting": "Carcinogen: 4-(METHYLNITROSAMINO)-1-(3-PYRIDYL)-1-BUTANONE, 64091-91-4, 10 PPM IN DIET BEGINNING 1 WK PRIOR TO CARCINOGEN TREATMENT AND CONTINUING FOR 16 WK POST CARCINOGEN TREATMENT (STUDY, Route [Inhibitor]: ORAL, Species: MOUSE, Strain/Sex: STRAIN-A/FEMALE, Target Tissue: Type of Lesion: LUNG: ADENOMA, Dose [Carcinogen]: 10 UMOL IN 0.1 ML SALINE, Promoter: NONE USED", "value": "100%, 90%, 10%, not significant"}, {"measurement": "tumour outcome (control, treated, inhibition, significance)", "setting": "Carcinogen: 4-(METHYLNITROSAMINO)-1-(3-PYRIDYL)-1-BUTANONE, 64091-91-4, 15 PPM IN DIET BEGINNING 1 WK PRIOR TO CARCINOGEN TREATMENT AND CONTINUING FOR 16 WK POST CARCINOGEN TREATMENT (STUDY, Route [Inhibitor]: ORAL, Species: MOUSE, Strain/Sex: STRAIN-A/FEMALE, Target Tissue: Type of Lesion: LUNG: ADENOMA, Dose [Carcinogen]: 10 UMOL IN 0.1 ML SALINE, Promoter: NONE USED", "value": "100%, 85%, 15%, not significant"}, {"measurement": "tumour outcome (control, treated, inhibition, significance)", "setting": "Carcinogen: 4-(METHYLNITROSAMINO)-1-(3-PYRIDYL)-1-BUTANONE, 64091-91-4, 15 PPM IN DIET FOR 3 WK BEGINNING 2 WK PRIOR TO CARCINOGEN DOSE (STUDY DURATION: 18 WK), Route [Inhibitor]: ORAL, Species: MOUSE, Strain/Sex: STRAIN-A/FEMALE, Target Tissue: Type of Lesion: LUNG: TUMOR, Dose [Carcinogen]: 10 UMOL IN 0.1 ML SALINE ONCE, Promoter: NONE USED", "value": "100%, 80%, 20%, not significant"}, {"measurement": "tumour outcome (control, treated, inhibition, significance)", "setting": "Carcinogen: 4-(METHYLNITROSAMINO)-1-(3-PYRIDYL)-1-BUTANONE, 64091-91-4, 15 PPM IN DIET FOR 15 WK BEGINNING 1 WK POST CARCINOGEN DOSE (STUDY DURATION: 18 WK), Route [Inhibitor]: ORAL, Species: MOUSE, Strain/Sex: STRAIN-A/FEMALE, Target Tissue: Type of Lesion: LUNG: TUMOR, Dose [Carcinogen]: 10 UMOL IN 0.1 ML SALINE ONCE, Promoter: NONE USED", "value": "100%, 96%, 4%, not significant"}, {"measurement": "tumour outcome (control, treated, inhibition, significance)", "setting": "Carcinogen: 7,12-DIMETHYLBENZ[A]ANTHRACENE, 57-97-6, 2.5 PPM (AS SELENIUM) IN DIET BEGINNING 2 WK PRIOR TO CARCINOGEN DOSE AND CONTINUING FOR DURATION OF STUDY (STUDY DUR, Route [Inhibitor]: ORAL, Species: RAT, Strain/Sex: SPRAGUE-DAWLEY/FEMALE, Target Tissue: Type of Lesion: MAMMARY GLAND: ADENOCARCINOMA, Dose [Carcinogen]: 10 MG ONCE AT 55 D OF AGE, Promoter: NONE USED", "value": "88%, 72%, 18%, not significant"}, {"measurement": "tumour outcome (control, treated, inhibition, significance)", "setting": "Carcinogen: 7,12-DIMETHYLBENZ[A]ANTHRACENE, 57-97-6, 5 PPM (AS SELENIUM) IN DIET BEGINNING 1 WK POST CARCINOGEN DOSE AND CONTINUING FOR 25 WK (STUDY DURATION: 25 WK), Route [Inhibitor]: ORAL, Species: RAT, Strain/Sex: SPRAGUE-DAWLEY/FEMALE, Target Tissue: Type of Lesion: MAMMARY GLAND: ADENOCARCINOMA, Dose [Carcinogen]: 10 MG ONCE AT 55 D OF AGE, Promoter: NONE USED", "value": "22/25 (88%), 17/25 (68%), 23%, not significant"}]}]}
